Data as given in US20100144712A1 (priority 2007, published 2010).
In brackets after ≈: the same amount, converted by molar mass. Like-named read-outs stand apart in the source and are kept apart here.

Tests used:
Type in all cases: cell-based
[1] = tested on: Candida albican ATCC MYA-1003; assay: In vitro antifungal activity (MIC80), Candida albican ATCC MYA-1003; details: Candida; Table 2, MYA 1003; read-out: Minimal inhibitory concentration (MIC80)
Outline: (§1)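 Broth dilution in RPMI 1640 with 2% (v/v) final DMSO, test range 0.25 to 256 […]. Yeast inoculum 1.0×10^3–5.0×10^3 CFU/ml, growth read with alamarBlue, run twice. MIC80 is the lowest concentration giving 80% growth reduction against untreated control.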

[2] = tested on: Candida albican ATCC 90873; assay: In vitro antifungal activity (MIC80), Candida albican ATCC 90873; details: Candida, ATCC90873; Table 2, ATCC 90873; read-out: Minimal inhibitory concentration (MIC80)
Outline: as §1

[3] = tested on: Candida albican ATCC 62342; assay: In vitro antifungal activity (MIC80), Candida albican ATCC 62342; details: Candida, ATCC62342; Table 2, 62342; read-out: Minimal inhibitory concentration (MIC80)
Outline: as §1

[4] = tested on: Candida albican ATCC 64124; assay: In vitro antifungal activity (MIC80), Candida albican ATCC 64124; details: Candida, ATCC64124; Table 2, 64124; read-out: Minimal inhibitory concentration (MIC80)
Outline: as §1

[5] = tested on: Aspergillus terreus ATCC 28301; assay: In vitro antifungal activity (MIC80), Aspergillus terreus ATCC 28301; details: Aspergillus terreus, ATCC28301; Table 3, ATCC 28301; read-out: Minimal inhibitory concentration (MIC80)
Description: (§2) In vitro antifungal activities of the inventive antifungal compounds were evaluated using test strains including Candida albican (ATCC 90873, 204276, 62342, 64124, 64550, 96901, MYA-573, MYA-574, MYA-575, MYA-576, MYA-1003) and Aspergillus fumigatus (ATCC 16424). Test samples and positive control samples were prepared by dissolving the inventive compounds and comparative compounds, i.e., amphotericin B, fluconazole and itraconazole, in DMSO, respectively, and each successively diluted with medium to obtain test and positive control solutions having test compound concentrations of 0.125 μg/ml to a maximum concentration not generating turbidity. Minimal inhibitory concentration (MIC80) of each compound was determined as the lowest concentration of the test compounds required to reduce growth by 80% relative to a control strain not treated.
(§3) 3) Preparation of test samples: the inventive compounds and comparative compounds were each diluted with DMSO to obtain 1 to 2 ml of a test sample in a concentration of 100-folds of the determining maximum concentration (256 μg/ml).
(§4) The test samples were each successively diluted with RPMI 1640 to obtain test solutions having concentrations of […] in a 12×75 mm sterilized disposable culture tube. The final concentration of DMSO was adjusted to […] (v/v).
(§5) Candida albican strains were each subcultured in Sabourad Dextrose Agar, YM Agar or Potato Dextrose Agar medium at 35° C. for 2˜3 days. In the case of yeasts, a single colony was taken from prominent colonies and suspended in 0.85% sterile physiological saline solution and the turbidity of the suspension was adjusted to 80˜82% at 530 nm, and then diluted 50-fold with RPMI 1640 medium to 1.0×10^3˜5.0×10^3 CFU/ml. The turbidity of fungi was adjusted to 80˜82% and the suspension was diluted 50-fold to […]. Aspergillus fumigatus strains were subcultured in Malt Extract Agar for 7˜10 days, and a single colony was taken from prominent colonies and suspended in 0.85% sterile physiological saline solution and the suspension was adjusted to 0.108 at 530 nm, and then diluted 1000-fold with RPMI 1640 medium to 0.4×10^2˜5×10^4 CFU/ml. The turbidity of fungi was adjusted to 80˜82% and the suspension was diluted 50-fold to 0.4102˜0.5104 CFU/ml.
(§6) The strain solutions thus obtained were each seeded into a sterilized 96-well microplate, 0.1 ml of each test solution were added thereto, and […] of alamarblue was treated to each well (Biosource, #DAL1100). This procedure was repeated 2 times.
(§7) Minimal inhibitory concentration (MIC80) of each compound was determined as the lowest concentration of the test compounds required to reduce growth by 80% relative to a control strain not treated.
(§8) MIC80 of each of the compounds of which antifungal activities can be confirmed by Table 2 was determined using other test strains, i.e., Aspergillus fumigatus ATCC 16424 and MYA-1163, Aspergillus terreus ATCC 28301, Aspergillus flavus ATCC MYA-1004, and Aspergillus niger ATCC 9142.

[6] = tested on: Aspergillus flavus ATCC MYA-1004; assay: In vitro antifungal activity (MIC80), Aspergillus flavus ATCC MYA-1004; details: Aspergillus flavus; Table 3, MYA-1004; read-out: Minimal inhibitory concentration (MIC80)
Description: as §2, §3, §4, §5, §6, §7, §8

[7] = tested on: Candida albican ATCC MYA-575; assay: In vitro antifungal activity (MIC80), Candida albican ATCC MYA-575; details: Candida; Table 2, MYA 575; read-out: Minimal inhibitory concentration (MIC80)
Outline: as §1

[8] = tested on: Aspergillus fumigatus MYA-1163; assay: In vitro antifungal activity (MIC80), Aspergillus fumigatus MYA-1163; details: Aspergillus fumigatus, MYA1163; Table 3, MYA-1163; read-out: Minimal inhibitory concentration (MIC80)
Description: as §2, §3, §4, §5, §6, §7, §8

[9] = tested on: Candida albican ATCC 96901; assay: In vitro antifungal activity (MIC80), Candida albican ATCC 96901; details: Candida, ATCC96901; Table 2, ATCC 96901; read-out: Minimal inhibitory concentration (MIC80)
Outline: as §1

[10] = tested on: Candida albican ATCC MYA-573; assay: In vitro antifungal activity (MIC80), Candida albican ATCC MYA-573; details: Candida; Table 2, MYA 573; read-out: Minimal inhibitory concentration (MIC80)
Outline: as §1

[11] = tested on: Candida albican ATCC 64550; assay: In vitro antifungal activity (MIC80), Candida albican ATCC 64550; details: Candida, ATCC64550; Table 2, 64550; read-out: Minimal inhibitory concentration (MIC80)
Outline: as §1

[12] = tested on: Aspergillus niger ATCC 9142; assay: In vitro antifungal activity (MIC80), Aspergillus niger ATCC 9142; details: Aspergillus niger, ATCC9142; Table 3, ATCC 9142; read-out: Minimal inhibitory concentration (MIC80)
Description: as §2, §3, §4, §5, §6, §7, §8

[13] = tested on: Candida albican ATCC MYA-574; assay: In vitro antifungal activity (MIC80), Candida albican ATCC MYA-574; details: Candida; Table 2, MYA 574; read-out: Minimal inhibitory concentration (MIC80)
Outline: as §1

[14] = tested on: Candida albican ATCC MYA-576; assay: In vitro antifungal activity (MIC80), Candida albican ATCC MYA-576; details: Candida; Table 2, MYA 576; read-out: Minimal inhibitory concentration (MIC80)
Outline: as §1

[15] = tested on: Aspergillus fumigatus (ATCC 16424); assay: In vitro antifungal activity (MIC80), Aspergillus fumigatus ATCC 16424; details: Aspergillus fumigatus, read-out: Minimal inhibitory concentration (MIC80)
Outline: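 Broth dilution in RPMI 1640 with 2% (v/v) final DMSO; A. fumigatus inoculum from Malt Extract Agar subculture diluted 1000-fold to 0.4×10^2˜5×10^4 CFU/ml, alamarblue added, repeated 2 times. MIC80 is lowest concentration reducing growth 80% versus untreated control.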

MIC80 [1] [µg/mL]	MIC80 [2] [µg/mL]	MIC80 [3] [µg/mL]	MIC80 [4] [µg/mL]	MIC80 [5] [µg/mL]	MIC80 [6] [µg/mL]	MIC80 [7] [µg/mL]	MIC80 [8] [µg/mL]	MIC80 [9] [µg/mL]	MIC80 [10] [µg/mL]	MIC80 [11] [µg/mL]	MIC80 [12] [µg/mL]	MIC80 [13] [µg/mL]	MIC80 [14] [µg/mL]	MIC80 ([15]; ATCC16424, Table 2, ATCC 16424) [µg/mL]	MIC80 ([15]; ATCC16424, Table 3, ATCC 16424) [µg/mL]	SMILES
> 128	0.125 (≈ 0.256 µM)	0.25 (≈ 0.511 µM)	4 (≈ 8.18 µM)	0.5 (≈ 1.02 µM)	0.25 (≈ 0.511 µM)	0.125 (≈ 0.256 µM)	0.25 (≈ 0.511 µM)	2 (≈ 4.09 µM)	0.25 (≈ 0.511 µM)	0.5 (≈ 1.02 µM)	1 (≈ 2.05 µM)	0.25 (≈ 0.511 µM)	0.125 (≈ 0.256 µM)	0.125 (≈ 0.256 µM)	0.125 (≈ 0.256 µM)	C[C@@H](N1CCN(c2nc3ccc(Cl)cc3o2)CC1)[C@](O)(Cn1cncn1)c1ccc(F)cc1F [Example 6, (2R,3R)-3-(4-(6-chlorobenzooxazol-2-yl)piperazin-1-yl)-2-(2,4-difluorophenyl)-1-(1H-1,2,4-triazol-1-yl)butan-2-ol]
8 (≈ 13.4 µM)	1 (≈ 1.67 µM)	8 (≈ 13.4 µM)	4 (≈ 6.68 µM)	4 (≈ 6.68 µM)	4 (≈ 6.68 µM)	1 (≈ 1.67 µM)	4 (≈ 6.68 µM)	2 (≈ 3.34 µM)	2 (≈ 3.34 µM)	2 (≈ 3.34 µM)	4 (≈ 6.68 µM)	4 (≈ 6.68 µM)	0.25 (≈ 0.418 µM)	2 (≈ 3.34 µM)	2 (≈ 3.34 µM)	C[C@@H](N1CCN(c2nc3ccc(NCCN4CCOCC4)cc3s2)CC1)[C@](O)(Cn1cncn1)c1ccc(F)cc1F [Example 12, (2R,3R)-3-(4-(6-(2-morpholinoethylamino)benzothiazol-2-yl)piperazin-1-yl)-2-(2,4-difluorophenyl)-1-(1H-1,2,4-triazol-1-yl)butan-2-ol]
64 (≈ 149 µM)	0.125 (≈ 0.292 µM)	0.25 (≈ 0.583 µM)	16 (≈ 37.3 µM)	1 (≈ 2.33 µM)	0.5 (≈ 1.17 µM)	0.125 (≈ 0.292 µM)	0.5 (≈ 1.17 µM)	32 (≈ 74.7 µM)	1 (≈ 2.33 µM)	2 (≈ 4.67 µM)	1 (≈ 2.33 µM)	2 (≈ 4.67 µM)	0.125 (≈ 0.292 µM)	0.125 (≈ 0.292 µM)	0.125 (≈ 0.292 µM)	C[C@@H](N1CCCN(c2ccccn2)CC1)[C@](O)(Cn1cncn1)c1ccc(F)cc1F [Example 38, (2R,3R)-2-(2,4-difluorophenyl)-3-(4-(pyridin-2-yl)-1,4-diazepan-1-yl)-1-(1H-1,2,4-triazol-1-yl)butan-2-ol]
